In publication PMC4728128, “Two-subunit DNA escort mechanism and inactive subunit bypass in an ultra-fast ring ATPase” (eLife, 2015):

What was measured:
SpoIIIE [1] = biological target: T1, SpoIIIE (Bacillus subtilis, UniProt P21458); test: optical tweezers rupture force of SpoIIIE-DNA tether (indirect sign of nucleotide binding); conditions: 1 mM ADP, no ATP; dsDNA
T1 construct: N-terminal biotin tag (PinPoint Xa-1) fused to SpoIIIE from plasmid pJB103 (Bath et al. 2000); recombinant, purified; homo-hexamer

SpoIIIE [2] = biological target: T1, SpoIIIE; test: single-molecule optical tweezers DNA translocation; format: biochemical; conditions: dsDNA, 50 mM Tris-HCl pH 7.5, 10 mM MgCl2

T1 sequence (P21458 175-787): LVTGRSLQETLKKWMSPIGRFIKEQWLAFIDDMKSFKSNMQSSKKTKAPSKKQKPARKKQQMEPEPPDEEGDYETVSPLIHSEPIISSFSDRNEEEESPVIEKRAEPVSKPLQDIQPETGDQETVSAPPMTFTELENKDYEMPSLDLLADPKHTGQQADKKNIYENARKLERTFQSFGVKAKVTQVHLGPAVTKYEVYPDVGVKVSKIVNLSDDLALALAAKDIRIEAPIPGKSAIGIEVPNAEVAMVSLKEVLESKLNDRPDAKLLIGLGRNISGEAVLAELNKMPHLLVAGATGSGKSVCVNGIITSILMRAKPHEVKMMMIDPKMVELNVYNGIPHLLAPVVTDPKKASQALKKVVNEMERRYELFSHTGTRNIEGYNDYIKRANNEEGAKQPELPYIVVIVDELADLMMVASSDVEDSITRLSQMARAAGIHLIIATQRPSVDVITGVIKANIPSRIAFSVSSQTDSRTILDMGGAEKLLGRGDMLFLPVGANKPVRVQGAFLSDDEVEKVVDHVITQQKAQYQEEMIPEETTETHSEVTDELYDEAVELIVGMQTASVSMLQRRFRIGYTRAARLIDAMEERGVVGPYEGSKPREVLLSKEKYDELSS

Row | SMILES | optical tweezers rupture force of SpoIIIE-DNA tether (indirect sign of nucleotid) (SpoIIIE [1]) | Km (SpoIIIE [2])
1 | Nc1ncnc2c1ncn2[C@@H]1O[C@H](COP(=O)(O)OP(=O)(O)O)[C@@H](O)[C@H]1O [ADP] | In buffers containing only ADP or ATPγS, SpoIIIE could bind to DNA | –
2 | Nc1ncnc2c1ncn2[C@@H]1O[C@H](COP(=O)(O)OP(=O)(O)OP(=O)(O)O)[C@@H](O)[C@H]1O [ATP] | – | 505 ± 50 µM
